Test results taken from patent publication US8344101B2, “Composition for improving brain function and method for improving brain function” (Calpis Co., Ltd., priority 2009, dated 2013).

Test system: scopolamine-induced amnesia
Experiment: Y-shaped maze test of spontaneous alternation behavior in mice with scopolamine-induced amnesia
Format: in vivo
Settings: male ddY mice, scopolamine 1 mg/kg s.c. 30 minutes before test
Protocol: Male mice (n=15 to 30) of the ddY strain (approximately 7-week old) were used, and they took food and water ad lib. Test substances used were 150 nmol/kg weight (380 μg/kg weight) and 500 nmol/kg weight (1280 μg/kg weight) of […](SEQ ID NO: 2 ). The test substances were administered to the mice once orally […] the execution of a Y-shaped maze test for evaluation of spontaneous alternation behavior. Further, 30 minutes before the execution of the Y-shaped maze test, 1 mg/kg weight of scopolamine was subcutaneously administered on the backs of the mice in order to induce brain dysfunction (dysmnesia and/or cognitive impairment) in the mice. In the Y-shaped maze test, a Y-shaped maze was used as an experimental device, in which the length of each arm was 40 cm, the height of the wall was 12 cm, the width of the floor was 3 cm, and the width of the upper part was 10 cm, and three arms were connected to each other at an angle of 120 degrees. Each of the mice was placed at the tip of any one of the arms of the Y-shaped maze, and then let go to freely explore in the maze for 8 minutes. The sequence of the arms each of the mice entered was recorded. The number of entries by each of the mice for each of the anus during the measurement time was counted to be the total number of entries. In the sequence, the combination in which three different arms were selected in succession (for example, with the three arms respectively called A, B, and C, if the sequence of the arms entered is ABCBACACB, the count is 4 inclusive of overlapping) was investigated, and the number of the count was used as the number of spontaneous alternation behavior. The percentage of spontaneous alternation behavior was calculated by dividing the number of spontaneous alternation behavior by a number obtained by subtracting 2 from the total number of entries, and multiplying a resultant number by 100. The percentage of spontaneous alternation behavior was used as an indicator. […] The measured values were expressed in the form of mean ±standard error for each group. A significant difference between the control group and the scopolamine control group was calculated using Student's t-test. Further, a significant difference between the scopolamine control group and the […] (SEQ ID NO: 2 )-administered group was calculated using Student's t-test.
Male mice (n=15 to 30) of the ddY strain (approximately 7-week old) were used, and they took food and water ad lib. Test substances used here were: 500 nmol/kg weight (1280 μg/kg weight) of […](SEQ ID NO: 2 ); 500 nmol/kg weight (1140 μg/kg weight) of […](SEQ ID NO: 1 ) ([…]); 500 nmol/kg weight (1400 μg/kg weight) of […]([…]) (SEQ ID NO: 3 ); and 500 nmol/kg weight (1150 μg/kg weight) of Ser-Trp-Met-His-Gln-Pro-His-Gln-Pro-Leu-Pro-Pro-Thr-Val-Met-Phe-Pro-Pro-Gln (SWMHQPHQPLPPTVMFPPQ) (SEQ ID NO: 5). The test substances were administered to the mice once orally 60 minutes before the execution of a Y-shaped maze test for evaluation of spontaneous alternation behavior. Further, 30 minutes before the execution of the Y-shaped maze test, 1 mg/kg weight of scopolamine was subcutaneously administered on the backs of the mice in order to induce brain dysfunction (dysmnesia and/or cognitive impairment) in the mice. […] The arms each of the mice entered were sequentially recorded. The number of entries by each of the mice for each of the arms during the measurement time was counted to be the total number of entries. […]

[1] = Example 2, single oral dose 500 nmol/kg weight 60 minutes before Y-shaped maze test, FIG. 2

Sequence | prophylactic activity against amnesia (percentage of spontaneous alternation behavior) [1] | prophylactic activity against amnesia (percentage of spontaneous alternation behavior) (Example 1, single oral dose ranging from 150 nmol/kg weight to 500 nmol/kg weight (380 to 1280 μg/kg weight), given 60 before Y-shaped maze test, FIG. 1)
LQSWMHQPHQPLPPTVMFPPQSVL (Synthetic functional peptide) | had a prophylactic activity against amnesia | –
MHQPHQPLPPTVMFPPQSVL (Synthetic functional peptide) | had a prophylactic activity against amnesia | –
SWMHQPHQPLPPTVMFPPQ (Synthetic comparative example peptide) [Ser-Trp-Met-His-Gln-Pro-His-Gln-Pro-Leu-Pro-Pro-Thr-Val-Met-Phe-Pro-Pro-Gln, C-terminally truncated related peptide tested for comparison] | did not show any activity | –
SWMHQPHQPLPPTVMFPPQSVL (Synthetic functional peptide) | had a prophylactic activity against amnesia | had a prophylactic activity against amnesia
